Results from US20250326753A1, “DUAL CXCR4-BTK INHIBITORS” (X4 Pharmaceuticals, Inc., priority 2022, published 2025).
Where two headings read alike, the source gives them in different places.

What was measured:
Format in all cases: biochemical
PDGFRalpha = target: T1, PDGFRalpha (Homo sapiens, UniProt P16234); experiment: PanQinase kinase panel: PDGFRalpha; details: read-out: INHIBITORY EFFECT @ 1 uM: PDGFRalpha
T1 construct: purchased Reaction Biology Europe GmbH
Method: (§1) Screening procedures were performed in accordance with the company's on-line protocol [accessed on-line Mar.
(§2) For each kinase, the median value of the cpm of three wells was defined as “low control” (n=3). This value reflects unspecific binding of radioactivity to the plate in the absence of a protein kinase but in the presence of the substrate. Additionally, for each kinase the median value of the cpm of three other wells was taken as the “high control,” i.e. full activity in the absence of any inhibitor (n=3). The difference between high and low control of each enzyme was taken as 100% activity.
(§3) As part of the data evaluation the low control of each kinase was subtracted from the high control value as well as from their corresponding “compound values”. The residual activity (in %) for each compound well was calculated by using the following formula: Res. Activity (%)=100×[(signal of compound−low control)/(high control−low control)].

PDGFRbeta = target: T2, PDGFRbeta (Homo sapiens, UniProt P09619); experiment: PanQinase kinase panel: PDGFRbeta; details: read-out: INHIBITORY EFFECT @ 1 uM: PDGFRbeta
T2 construct: purchased Reaction Biology Europe GmbH
Method: as §1, §2, §3

FGFR3 = target: T3, FGFR3 (Homo sapiens, UniProt P22607); experiment: PanQinase kinase panel: FGFR3; details: read-out: INHIBITORY EFFECT @ 1 uM: FGFR3
T3 construct: purchased Reaction Biology Europe GmbH
T3 sequence (P22607 23-806): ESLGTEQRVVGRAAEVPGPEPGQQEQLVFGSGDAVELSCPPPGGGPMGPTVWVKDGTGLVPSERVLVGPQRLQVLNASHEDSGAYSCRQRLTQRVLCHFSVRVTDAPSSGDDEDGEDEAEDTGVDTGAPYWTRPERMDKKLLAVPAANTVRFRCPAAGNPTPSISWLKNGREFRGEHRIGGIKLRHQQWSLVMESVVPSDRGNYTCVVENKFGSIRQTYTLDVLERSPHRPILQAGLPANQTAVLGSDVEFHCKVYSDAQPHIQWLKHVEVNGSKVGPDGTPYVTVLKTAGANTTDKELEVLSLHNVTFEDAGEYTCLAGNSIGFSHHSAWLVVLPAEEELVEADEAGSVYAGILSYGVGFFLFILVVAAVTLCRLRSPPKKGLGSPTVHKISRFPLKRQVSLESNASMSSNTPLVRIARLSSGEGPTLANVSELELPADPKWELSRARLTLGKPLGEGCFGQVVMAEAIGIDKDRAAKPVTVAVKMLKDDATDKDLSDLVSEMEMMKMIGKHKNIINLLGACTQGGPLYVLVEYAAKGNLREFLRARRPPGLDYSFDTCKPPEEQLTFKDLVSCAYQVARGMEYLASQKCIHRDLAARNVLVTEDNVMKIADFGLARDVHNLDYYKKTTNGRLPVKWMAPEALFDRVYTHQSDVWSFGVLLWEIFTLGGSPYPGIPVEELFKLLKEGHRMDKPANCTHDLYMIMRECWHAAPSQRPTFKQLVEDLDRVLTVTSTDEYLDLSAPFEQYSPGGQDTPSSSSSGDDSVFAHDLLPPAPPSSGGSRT
Method: as §1, §2, §3

VEGFR2 = target: T4, VEGFR2 (Homo sapiens, UniProt P35968); experiment: PanQinase kinase panel: VEGFR2; details: read-out: INHIBITORY EFFECT @ 1 uM: VEGFR2
T4 construct: purchased Reaction Biology Europe GmbH
T4 sequence (P35968 20-1356): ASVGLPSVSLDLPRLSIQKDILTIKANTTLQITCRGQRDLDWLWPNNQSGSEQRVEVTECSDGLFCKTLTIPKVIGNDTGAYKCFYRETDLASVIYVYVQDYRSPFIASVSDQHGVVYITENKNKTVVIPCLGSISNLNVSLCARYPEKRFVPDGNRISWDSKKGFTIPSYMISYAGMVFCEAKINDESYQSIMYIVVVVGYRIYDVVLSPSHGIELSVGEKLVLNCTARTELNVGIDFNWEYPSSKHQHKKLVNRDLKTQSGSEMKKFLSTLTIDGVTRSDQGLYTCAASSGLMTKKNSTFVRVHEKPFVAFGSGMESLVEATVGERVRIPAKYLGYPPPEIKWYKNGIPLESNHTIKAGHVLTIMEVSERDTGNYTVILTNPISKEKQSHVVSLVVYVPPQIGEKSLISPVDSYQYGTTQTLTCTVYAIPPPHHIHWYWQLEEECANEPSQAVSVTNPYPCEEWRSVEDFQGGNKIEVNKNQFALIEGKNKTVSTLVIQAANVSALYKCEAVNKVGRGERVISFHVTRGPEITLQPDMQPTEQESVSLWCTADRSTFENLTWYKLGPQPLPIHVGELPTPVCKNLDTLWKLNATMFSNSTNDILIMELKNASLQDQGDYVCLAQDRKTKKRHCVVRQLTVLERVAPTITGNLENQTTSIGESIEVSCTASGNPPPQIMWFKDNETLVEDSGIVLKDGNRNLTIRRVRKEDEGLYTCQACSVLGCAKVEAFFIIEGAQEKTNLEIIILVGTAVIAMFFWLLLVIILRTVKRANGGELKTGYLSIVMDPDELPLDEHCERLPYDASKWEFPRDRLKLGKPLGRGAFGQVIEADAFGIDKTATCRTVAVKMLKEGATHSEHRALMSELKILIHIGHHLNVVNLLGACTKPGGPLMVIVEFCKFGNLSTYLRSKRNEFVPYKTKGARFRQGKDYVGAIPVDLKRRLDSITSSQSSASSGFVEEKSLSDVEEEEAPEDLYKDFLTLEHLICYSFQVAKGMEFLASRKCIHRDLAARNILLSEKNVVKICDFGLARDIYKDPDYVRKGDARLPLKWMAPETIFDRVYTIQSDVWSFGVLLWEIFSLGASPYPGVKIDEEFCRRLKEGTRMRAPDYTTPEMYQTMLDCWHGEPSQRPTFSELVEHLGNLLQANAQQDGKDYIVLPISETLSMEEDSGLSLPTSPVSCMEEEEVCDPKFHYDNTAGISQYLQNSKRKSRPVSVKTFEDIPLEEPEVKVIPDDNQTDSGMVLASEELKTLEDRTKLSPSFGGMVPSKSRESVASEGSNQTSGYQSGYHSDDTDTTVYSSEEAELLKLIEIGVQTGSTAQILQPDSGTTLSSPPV
Method: as §1, §2, §3

INSRR = target: T5, INSRR (Homo sapiens, UniProt P14616); experiment: PanQinase kinase panel: INSRR; details: read-out: INHIBITORY EFFECT @ 1 uM: INSRR
T5 construct: purchased Reaction Biology Europe GmbH
T5 sequence (P14616 27-1297): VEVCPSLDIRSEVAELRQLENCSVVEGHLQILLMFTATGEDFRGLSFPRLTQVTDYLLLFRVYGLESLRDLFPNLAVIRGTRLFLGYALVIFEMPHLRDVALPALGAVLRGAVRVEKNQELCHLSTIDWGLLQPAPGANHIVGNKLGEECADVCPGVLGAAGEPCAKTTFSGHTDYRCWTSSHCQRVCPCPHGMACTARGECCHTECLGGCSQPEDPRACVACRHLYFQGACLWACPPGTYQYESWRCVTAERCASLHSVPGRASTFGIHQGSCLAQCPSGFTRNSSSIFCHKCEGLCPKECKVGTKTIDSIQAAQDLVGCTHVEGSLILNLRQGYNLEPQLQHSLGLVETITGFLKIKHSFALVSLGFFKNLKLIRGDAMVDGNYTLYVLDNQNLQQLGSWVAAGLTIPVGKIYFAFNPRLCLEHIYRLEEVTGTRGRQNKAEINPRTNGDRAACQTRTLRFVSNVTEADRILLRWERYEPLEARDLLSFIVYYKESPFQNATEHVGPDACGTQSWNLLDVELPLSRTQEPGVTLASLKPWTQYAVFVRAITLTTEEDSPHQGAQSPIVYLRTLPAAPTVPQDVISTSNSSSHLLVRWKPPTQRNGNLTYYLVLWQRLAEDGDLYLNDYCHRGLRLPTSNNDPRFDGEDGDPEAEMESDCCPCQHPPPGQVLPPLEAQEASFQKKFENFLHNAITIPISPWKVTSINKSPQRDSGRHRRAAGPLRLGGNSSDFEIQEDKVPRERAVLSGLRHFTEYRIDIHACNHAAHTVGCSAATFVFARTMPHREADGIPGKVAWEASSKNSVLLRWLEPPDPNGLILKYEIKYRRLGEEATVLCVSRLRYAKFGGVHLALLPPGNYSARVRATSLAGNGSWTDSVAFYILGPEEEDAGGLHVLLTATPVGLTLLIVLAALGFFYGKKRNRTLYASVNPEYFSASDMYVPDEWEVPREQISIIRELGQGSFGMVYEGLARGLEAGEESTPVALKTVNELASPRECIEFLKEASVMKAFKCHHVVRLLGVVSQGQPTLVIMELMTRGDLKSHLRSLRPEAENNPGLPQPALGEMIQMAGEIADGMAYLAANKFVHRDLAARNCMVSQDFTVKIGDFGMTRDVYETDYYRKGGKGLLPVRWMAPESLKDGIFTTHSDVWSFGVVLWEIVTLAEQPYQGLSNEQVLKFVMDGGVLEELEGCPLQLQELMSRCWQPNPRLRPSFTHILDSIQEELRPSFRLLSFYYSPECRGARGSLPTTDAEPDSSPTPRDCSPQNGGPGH
Method: as §1, §2, §3

FRK = target: T6, FRK (Homo sapiens, UniProt P42685); experiment: PanQinase kinase panel: FRK; details: read-out: INHIBITORY EFFECT @ 1 uM: FRK
T6 construct: purchased Reaction Biology Europe GmbH
T6 sequence (P42685 whole entry): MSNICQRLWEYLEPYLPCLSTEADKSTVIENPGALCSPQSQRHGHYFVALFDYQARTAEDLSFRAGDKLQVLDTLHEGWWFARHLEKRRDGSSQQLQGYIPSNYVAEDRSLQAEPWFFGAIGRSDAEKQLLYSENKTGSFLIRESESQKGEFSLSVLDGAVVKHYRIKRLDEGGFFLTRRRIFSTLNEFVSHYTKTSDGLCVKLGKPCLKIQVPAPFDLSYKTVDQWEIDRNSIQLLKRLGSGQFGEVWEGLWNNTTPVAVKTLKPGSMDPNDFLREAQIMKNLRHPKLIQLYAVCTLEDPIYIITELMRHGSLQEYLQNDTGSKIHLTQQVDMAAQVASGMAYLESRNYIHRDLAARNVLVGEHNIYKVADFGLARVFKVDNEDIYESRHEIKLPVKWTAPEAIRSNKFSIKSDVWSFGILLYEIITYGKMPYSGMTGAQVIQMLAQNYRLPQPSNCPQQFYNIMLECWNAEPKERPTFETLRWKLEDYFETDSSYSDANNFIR
Method: as §1, §2, §3

RET = target: T7, RET (Homo sapiens, UniProt P07949); experiment: PanQinase kinase panel: RET; details: read-out: INHIBITORY EFFECT @ 1 uM: RET
T7 construct: purchased Reaction Biology Europe GmbH
Method: as §1, §2, §3

MKK6 SDTD = target: T8, MKK6 SDTD (Homo sapiens, UniProt P52564, S207D/T211D); experiment: PanQinase kinase panel: MKK6 SDTD; details: read-out: INHIBITORY EFFECT @ 1 uM: MKK6 SDTD
T8 construct: purchased Reaction Biology Europe GmbH
T8 sequence (P52564 1-334 S207D/T211D): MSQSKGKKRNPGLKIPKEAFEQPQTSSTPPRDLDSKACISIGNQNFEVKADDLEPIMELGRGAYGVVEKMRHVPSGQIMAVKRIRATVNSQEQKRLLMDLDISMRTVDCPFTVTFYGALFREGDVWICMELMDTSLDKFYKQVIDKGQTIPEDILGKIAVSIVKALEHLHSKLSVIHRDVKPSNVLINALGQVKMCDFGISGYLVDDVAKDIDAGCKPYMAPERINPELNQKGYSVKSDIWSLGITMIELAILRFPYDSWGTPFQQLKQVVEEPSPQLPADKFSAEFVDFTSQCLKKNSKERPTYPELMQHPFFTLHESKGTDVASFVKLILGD
Method: as §1, §2, §3

CDK13/CycK = target: T9, CDK13/CycK (Homo sapiens, UniProt Q14004); experiment: PanQinase kinase panel: CDK13/CycK
T9 construct: purchased Reaction Biology Europe GmbH
Method: Screening procedures were performed in accordance with the company's on-line protocol [accessed on-line Mar. 25, 2022 at reaction biology.com/assay-protocol-panqinase]. Inhibitory activity of 50% or greater at concentrations of 1 μM are highlighted for all five compounds tested.
as §2, §3

AuroraA = target: T10, AuroraA (Homo sapiens, UniProt O14965); experiment: PanQinase kinase panel: AuroraA
T10 construct: purchased Reaction Biology Europe GmbH
T10 sequence (O14965 1-403): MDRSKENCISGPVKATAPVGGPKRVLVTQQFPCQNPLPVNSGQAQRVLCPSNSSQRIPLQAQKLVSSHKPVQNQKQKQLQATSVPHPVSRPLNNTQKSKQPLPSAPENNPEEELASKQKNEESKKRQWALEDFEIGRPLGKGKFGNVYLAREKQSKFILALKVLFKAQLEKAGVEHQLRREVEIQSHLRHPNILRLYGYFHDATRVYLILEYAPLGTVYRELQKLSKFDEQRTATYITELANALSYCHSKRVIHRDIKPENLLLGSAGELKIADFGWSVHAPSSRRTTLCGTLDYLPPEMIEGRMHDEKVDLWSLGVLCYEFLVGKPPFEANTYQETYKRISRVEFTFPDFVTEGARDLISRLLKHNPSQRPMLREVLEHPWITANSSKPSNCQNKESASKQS
Method: as §1, §2, §3

p38beta = target: T11, p38beta (Homo sapiens, UniProt Q15759); experiment: PanQinase kinase panel: p38beta; details: read-out: INHIBITORY EFFECT @ 1 uM: p38beta
T11 construct: purchased Reaction Biology Europe GmbH
T11 sequence (Q15759 whole entry): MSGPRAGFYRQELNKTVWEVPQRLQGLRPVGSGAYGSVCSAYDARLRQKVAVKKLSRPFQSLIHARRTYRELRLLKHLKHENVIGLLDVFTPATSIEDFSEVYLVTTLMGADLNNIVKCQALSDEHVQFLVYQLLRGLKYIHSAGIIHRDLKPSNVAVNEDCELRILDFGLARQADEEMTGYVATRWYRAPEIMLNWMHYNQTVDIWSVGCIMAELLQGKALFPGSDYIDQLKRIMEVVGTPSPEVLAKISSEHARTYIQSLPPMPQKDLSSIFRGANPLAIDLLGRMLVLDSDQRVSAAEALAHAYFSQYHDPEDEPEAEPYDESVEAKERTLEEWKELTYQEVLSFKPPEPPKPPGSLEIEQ
Method: as §1, §2, §3

FGFR1 = target: T12, FGFR1 (Homo sapiens, UniProt P11362); experiment: PanQinase kinase panel: FGFR1; details: read-out: INHIBITORY EFFECT @ 1 uM: FGFR1
T12 construct: purchased Reaction Biology Europe GmbH
Method: as §1, §2, §3

BRK = target: T13, BRK (Homo sapiens, UniProt Q13882); experiment: PanQinase kinase panel: BRK; details: read-out: INHIBITORY EFFECT @ 1 uM: BRK
T13 construct: purchased Reaction Biology Europe GmbH
T13 sequence (Q13882 whole entry): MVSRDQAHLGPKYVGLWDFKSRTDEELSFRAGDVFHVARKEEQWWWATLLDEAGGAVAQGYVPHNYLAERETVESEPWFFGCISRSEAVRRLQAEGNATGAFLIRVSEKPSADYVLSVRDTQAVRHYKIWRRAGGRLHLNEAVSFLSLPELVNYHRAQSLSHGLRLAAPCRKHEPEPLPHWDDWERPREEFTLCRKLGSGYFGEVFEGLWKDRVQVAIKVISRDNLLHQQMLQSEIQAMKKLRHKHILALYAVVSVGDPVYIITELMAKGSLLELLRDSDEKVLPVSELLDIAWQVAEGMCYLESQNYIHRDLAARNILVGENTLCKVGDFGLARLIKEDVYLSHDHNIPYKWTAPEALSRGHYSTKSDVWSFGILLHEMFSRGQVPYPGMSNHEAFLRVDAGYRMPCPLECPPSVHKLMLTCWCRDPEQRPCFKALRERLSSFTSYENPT
Method: as §1, §2
As part of the data evaluation the low control of each kinase was subtracted from the high control value as well as from their corresponding “compound values”.

[1] = read-out: INHIBITORY EFFECT @ 1 uM: CDK13/CycK
[2] = read-out: INHIBITORY EFFECT @ 1 uM: AuroraA
[3] = at 1 μM, read-out: inhibition of AuroraA

Row | Structure (SMILES) | inhibition at 1 µM (PDGFRalpha) [%] | inhibition at 1 µM (PDGFRbeta) [%] | inhibition at 1 µM (FGFR3) [%] | inhibition at 1 µM (VEGFR2) [%] | inhibition at 1 µM (INSRR) [%] | inhibition at 1 µM (FRK) [%] | inhibition at 1 µM (RET) [%] | inhibition at 1 µM (MKK6 SDTD) [%] | inhibition at 1 µM (CDK13/CycK; [1]) [%] | inhibition at 1 µM (AuroraA; [2]) [%] | inhibition at 1 µM (p38beta) [%] | inhibition at 1 µM (FGFR1) [%] | inhibition at 1 µM (BRK) [%] | inhibition at 1 µM (AuroraA; [3]) [%] | inhibition at 1 µM (CDK13/CycK; at 1 μM, read-out: inhibition of CDK13/CycK) [%]
1 | COc1ccc(F)cc1C(=O)NCc1ccc(-c2nn([C@@H](C)C(F)(F)F)c(N)c2C(N)=O)cc1 [LOXO-305, pirtobrutinib] | < 50 | < 50 | < 50 | < 50 | < 50 | < 50 | 50 to 69 | < 50 | < 50 | < 50 | < 50 | < 50 | 70 to 89 | – | –
2 | C=CC(=O)N1CCC([C@@H]2CCNc3c(C(N)=O)c(-c4ccc(Oc5ccccc5)cc4)nn32)CC1 [Zanubrutinib, (7S)-2-(4-phenoxyphenyl)-7-(1-prop-2-enoylpiperidin-4-yl)-4,5,6,7-tetrahydropyrazolo[1,5-a]pyrimidine-3-carboxamide] | < 50 | < 50 | < 50 | < 50 | < 50 | 50 to 69 | < 50 | < 50 | < 50 | < 50 | < 50 | < 50 | 90 to 100 | – | –
3 | O=C(c1ccc(Oc2ccccc2)cc1Cl)c1c[nH]c2ncnc(N[C@@H]3CC[C@@H](CO)OC3)c12 [ARQ-531, (2-chloro-4-phenoxyphenyl) (4-(((3R,6S)-6-(hydroxymethyl)tetrahydro-2H-pyran-3-yl)amino)-7H-pyrrolo[2,3-d]pyrimidin-5-yl) methanone] | 70 to 89 | < 50 | 50 to 69 | – | 90 to 100 | 70 to 89 | 90 to 100 | 90 to 100 | – | 50 to 69 | 70 to 89 | 50 to 69 | – | ≥ 50 | –
4 | Cc1cccnc1[C@H]1CCC[C@@H](c2ncccc2C)N1CCN1CCN(C(=O)c2ccc(-c3cc4c(-c5cccc(NC(=O)c6ccccc6)c5C)ncnc4[nH]3)cc2)CC1 [Compound I-10, N-(3-(6-(4-(4-(2-((2R,6S)-2,6-bis(3-methylpyridin-2-yl)piperidin-1-yl)ethyl)piperazine-1-carbonyl)phenyl)-7H-pyrrolo[2,3-d]pyrimidin-4-yl)-2-methylphenyl)benzamide] | < 50 | < 50 | < 50 | < 50 | < 50 | < 50 | < 50 | < 50 | 50 to 69 | 50 to 69 | < 50 | < 50 | < 50 | 50 to 89 | 50 to 89
